One assay concerns CD4+ PBMC. The assay is described as follows: CFSE proliferation assay: Mabs co-incubated with CD3/28-stimulated CD4+ PBMC without MoT cells. In kind it is cell-based, human. The note with it: no MoT cells (FIGS. 5C, 5E, 5G). As to the method:
(§1) Suppression assays. After IRB approval at Arizona State University (protocol #0601000548), peripheral blood was collected from healthy donors. After Ficoll-Paque Plus gradient separation of the buffy coat, CD4+ cells were purified using EasySep Human CD4^+ T Cell Isolation Kit (Catalog #17952 from Stemcell Technologies). Cells were allowed to rest overnight in cIMDM at 37° C. prior to labeling with CFSE (Carboxyfluorescein succinimidyl ester, from Cayman Chemica cat #10009853) dye to track cell divisions. The following day, CD4^+ T cells were counted, stained with CFSE, washed in PBS and then plated in IMDM with 10% FBS at 3×10^5 cells per well in a 48-well plate coated with OKT3 antibody at 5.0 ug/mL for 2 hours at 37° C. then washed twice in PBS before adding soluble co-stimulatory anti-CD28 (eBioscience clone CD28.6) at 5.0 ug/mL final concentration.
(FIG. 5A) Unstimulated PBMC. (FIG. 5B) CD3/28-stimulated CD4^+ PBMC cell division without MoT cells. (FIG. 5C) Anti-GITR, (FIG. 5E) Anti-CCR4 mogamulizumab, and (FIG. 5G) anti-PDL-1 (atezolizumab) co-incubated with PBMCs. (FIG. 5D) Anti-GITR, (FIG. 5F) anti-CCR4 (mogamulizumab), and (FIG. 5H) anti-PDL-1 (atezolizumab) co-incubated with PBMCs and MoT cells (1:½ ratio).

For a further assay, the system named is MoT cells. The assay is described as follows: CFSE suppression assay: Mabs pre-incubated with MoT cells, then co-cultured with CD3/28-stimulated CD4+ PBMC. In kind it is cell-based, human. The note with it: Mab pre-incubated with MoT cells 30 minutes, CD4+ PBMC:MoT ratio 1:1/2, CFSE flow cytometry (FIGS. 5D, 5F, 5H). As to the method: as §1
In some studies MoT and Jurkat cells were labeled with Cell Trace FarRed dye (Thermofisher) to gate MoT and Jurkat cells away from CD4^+ PBMC in flow cytometry analysis. Two-fold serial dilutions of MoT and Jurkat cells were added to CD4^+ PBMC, starting at 1.5×10^5 MoT and Jurkat cells (1:1/2 ratio CD4^+ T cells:tumor cells). Final volume per well was 1 mL. Cells were incubated for 5 days. […]

Entries after “also recorded” stand apart in the source; their conditions may differ.

Consider atezolizumab, for which the “suppression or inhibition of CD4+ PBMC proliferation by the Mab alone” value with CD4+ PBMC is reported as “do not suppress or inhibit”. In addition, the “reversal of MoT cell-mediated suppression of CD4+ PBMC proliferation” value with MoT cells is given as “None of the checkpoint inhibitor Mabs including anti-GITR reversed MoT cell-mediated suppression; also recorded: did not reverse suppression”; in the assay on MoT cells (listed as anti-PD-L1) it was “did not attenuate MoT Treg suppressive activity”.

(Values after patent US11391726B2, “MoT cells as a therapeutic screening tool for regulatory t-cell activity” (ARIZONA BOARD OF REGENTS ON BEHALF OF ARIZONA STATE …, priority 2018, dated 2022).)
